Entries after “also recorded” stand apart in the source; their conditions may differ. Like-named read-outs stand apart in the source and are kept apart here.
Assays:
[1] = system: patients who harbored a BRAF, NRAS, or KRAS mutation; conditions: cited from earlier work
[2] = cited from earlier work; for B/P (nonclinical), percentage of brain exposure relative to plasma: mice, literature
[3] = healthy subjects; cited from earlier work
[4] = concentration-independent; cited from earlier work
[5] = system: human tumor xenograft models; conditions: highest doses tested; cited from earlier work
P-gp/BCRP = conditions: literature, cited from earlier work
BCRP (ABCG2) [6] = target: T1, BCRP (ABCG2) (Homo sapiens, UniProt Q9UNQ0); experiment: Vesicular transport inhibition assay; type: in vitro ADME; conditions: BCRP-mediated E3S accumulation
T1 construct: expressed by SOLVO Biotechnology in mammalian (K and M) cells by chemical selection; purchased SOLVO Biotechnology; host or cells: mammalian (K and M) cells, overexpression by chemical selection
T1 sequence (Q9UNQ0 1-655): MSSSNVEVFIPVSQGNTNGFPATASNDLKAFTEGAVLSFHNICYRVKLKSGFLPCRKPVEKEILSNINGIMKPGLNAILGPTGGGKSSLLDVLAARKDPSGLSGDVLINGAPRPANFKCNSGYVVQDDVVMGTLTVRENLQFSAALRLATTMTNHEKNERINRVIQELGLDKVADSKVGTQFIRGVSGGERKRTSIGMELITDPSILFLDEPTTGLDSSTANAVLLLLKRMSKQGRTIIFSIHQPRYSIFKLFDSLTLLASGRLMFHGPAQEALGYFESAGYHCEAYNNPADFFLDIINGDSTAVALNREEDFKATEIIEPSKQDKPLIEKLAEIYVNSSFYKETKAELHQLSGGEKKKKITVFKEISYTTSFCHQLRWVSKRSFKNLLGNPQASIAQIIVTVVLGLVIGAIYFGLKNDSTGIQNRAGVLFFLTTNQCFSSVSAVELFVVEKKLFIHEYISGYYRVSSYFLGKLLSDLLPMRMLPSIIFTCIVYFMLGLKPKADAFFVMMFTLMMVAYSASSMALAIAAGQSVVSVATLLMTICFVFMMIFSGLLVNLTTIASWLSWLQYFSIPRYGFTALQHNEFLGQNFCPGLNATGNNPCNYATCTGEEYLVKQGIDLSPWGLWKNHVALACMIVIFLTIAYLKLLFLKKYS
Experimental: (§1) Stock solutions of belvarafenib 2HCl (10 mM, 1.33 mM, 1 mM and 0.1 mM) were prepared in DMSO. Serial dilutions (7-step, 3-fold) were prepared in DMSO, and used as the test solutions in the inhibition assays (100-fold dilution). The dilution factor in substrate experiments was 100-fold.
(§2) Instruments used for detection include a Thermo Scientific Dionex UltiMate 3000 series UHPLC (Thermo Scientific, San Jose, CA) with a Thermo Scientific TSQ Quantum Access Max triple quadrupole MS; a Perkin Elmer MicroBeta2liquid scintillation counter (Perkin Elmer, Waltham MA) and a BMG Labtech FluoStar Omega multifunctional microplate reader (BMG Labtech, Offenburg, Germany).
(§3) Vesicular transport assays were performed with inside-out membrane vesicles prepared from cells overexpressing human ABC transporters. The transporter has been expressed by SOLVO Biotechnology in mammalian (K and M) cells by chemical selection.
(§4) Parameters of the vesicular transport assays are listed in Table 6 where: “BCRP” refers to breast cancer resistance protein; “MDR1” refers to multidrug resistance protein 1; “E3S” refers to Estrone-3-sulfate; and “NMQ” refers to N-methyl quinidine.
(§5) Belvarafenib 2HCl was incubated with membrane vesicle preparations (total protein: 50 μg/well for MDR1, and 25 µg/well for BCRP) and the probe substrate. Incubations were carried out in the presence of 4 mM ATP or AMP to distinguish between transporter-mediated uptake and passive diffusion into the vesicles. Belvarafenib 2HCl was added to the reaction mixture in 0.75 μL of solvent ([…] of the final incubation volume). Reaction mixtures were pre-incubated for 15 minutes at 37±1° C. (or 32±1° C. for BCRP). Reactions were initiated by the addition of 25 μL of 12 mM MgATP (or 12 mM AMP in assay buffer as a background control), preincubated separately. Reactions were quenched by the addition of 200 μL of ice-cold washing buffer and immediate filtration via glass fiber filters mounted to a 96-well plate (filter plate). The filters were washed (5×200 μL of ice-cold washing buffer), dried and the amount of substrate inside the filtered vesicles was determined by liquid scintillation counting.
(§6) The controls were as follows. Incubation with AMP provided background activity values for all data points. Incubation with probe substrate (solvent only) provided 100% activity values. A reference inhibitor served as positive control for inhibition.
(§7) For all wells the amount of the translocated probe substrate was determined in cpm. Relative activities were calculated using the following equation: Relative Activity %=(A−B)/(C−D)*100. A is the amount of translocated substrate in the presence of TA and ATP. B is the amount of translocated substrate in the presence of TA and AMP. C is the amount of translocated substrate in the presence of solvent and ATP. D is the amount of translocated substrate in the presence of solvent and AMP.
(§8) Microsoft Excel 2010 (Microsoft Corporation, Redmond, WA) was used for basic data processing and GraphPad Prism 5.0 (GraphPad Software Inc., San Diego, CA) was used for curve fitting and determination of reaction parameters. In vesicular transport inhibition assays, the IC50 (μM) was calculated, where applicable. IC50 was defined as the concentration of TA required to inhibit maximal activity by 50%. IC50 values were derived from a four parametric logistic equation [log(inhibitor) vs. response−variable slope]; the curve was fitted to the relative activity vs. TA concentration plot using non-linear regression.

MDR1 (ABCB1/P-gp) [7] = target: T2, MDR1 (ABCB1/P-gp) (Homo sapiens, UniProt P08183); experiment: Vesicular transport inhibition assay; type: in vitro ADME; conditions: MDR1-mediated NMQ accumulation
T2 construct: expressed by SOLVO Biotechnology in mammalian (K and M) cells by chemical selection; purchased SOLVO Biotechnology; host or cells: mammalian (K and M) cells, overexpression by chemical selection
T2 sequence (P08183 whole entry): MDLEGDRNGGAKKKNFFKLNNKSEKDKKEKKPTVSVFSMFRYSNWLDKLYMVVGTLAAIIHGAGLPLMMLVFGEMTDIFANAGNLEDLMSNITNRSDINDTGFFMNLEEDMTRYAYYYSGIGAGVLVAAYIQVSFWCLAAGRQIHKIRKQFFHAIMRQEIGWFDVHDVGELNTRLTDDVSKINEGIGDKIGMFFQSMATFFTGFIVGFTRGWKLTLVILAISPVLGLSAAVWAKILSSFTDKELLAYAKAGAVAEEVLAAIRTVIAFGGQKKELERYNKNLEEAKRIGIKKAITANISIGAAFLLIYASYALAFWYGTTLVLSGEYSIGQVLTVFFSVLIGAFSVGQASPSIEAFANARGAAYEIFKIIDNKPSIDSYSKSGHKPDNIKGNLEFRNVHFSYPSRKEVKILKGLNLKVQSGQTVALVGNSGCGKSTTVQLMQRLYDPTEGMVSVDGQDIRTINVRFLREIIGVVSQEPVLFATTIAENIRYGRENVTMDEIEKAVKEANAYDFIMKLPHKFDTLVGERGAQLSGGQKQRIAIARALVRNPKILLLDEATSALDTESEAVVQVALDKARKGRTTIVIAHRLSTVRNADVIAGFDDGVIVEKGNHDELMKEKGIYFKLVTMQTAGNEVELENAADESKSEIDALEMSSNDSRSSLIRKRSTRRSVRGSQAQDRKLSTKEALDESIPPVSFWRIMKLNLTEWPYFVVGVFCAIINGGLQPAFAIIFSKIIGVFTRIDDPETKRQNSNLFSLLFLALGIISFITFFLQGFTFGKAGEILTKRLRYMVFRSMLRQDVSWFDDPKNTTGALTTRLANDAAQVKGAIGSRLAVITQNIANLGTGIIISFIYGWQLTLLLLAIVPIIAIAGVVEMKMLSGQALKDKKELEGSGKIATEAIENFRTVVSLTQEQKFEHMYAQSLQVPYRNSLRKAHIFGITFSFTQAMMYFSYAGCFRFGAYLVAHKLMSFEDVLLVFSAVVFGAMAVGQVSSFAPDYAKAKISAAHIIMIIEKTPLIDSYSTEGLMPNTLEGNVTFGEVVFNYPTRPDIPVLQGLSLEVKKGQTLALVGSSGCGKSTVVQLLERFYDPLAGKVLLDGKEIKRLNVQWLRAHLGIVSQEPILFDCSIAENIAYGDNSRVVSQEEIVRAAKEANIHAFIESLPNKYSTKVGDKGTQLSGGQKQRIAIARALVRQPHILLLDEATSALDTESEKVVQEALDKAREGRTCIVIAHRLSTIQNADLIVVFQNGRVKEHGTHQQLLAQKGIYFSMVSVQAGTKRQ
Experimental: as §1, §2, §3, §4, §5, §6, §7, §8

BCRP (ABCG2) [8] = target: T1, BCRP (ABCG2); experiment: Vesicular transport substrate assay; type: in vitro ADME
Experimental: as §1, §2, §3
(§9) Experimental method for vesicular transport substrate assay. The uptake of belvarafenib 2HCl into membrane vesicles was determined using inside-out membrane vesicles (total protein: 50 μg/well for MDR1, or 25 μg/well for BCRP) prepared from cells overexpressing BCRP or MDR1 ABC transporters as well as from control cells. Two incubation time points (2 and 20 min) and two concentrations (1 and 10 μM) of belvarafenib 2HCl were tested in the presence of ATP or AMP, to determine whether belvarafenib 2HCl is actively transported into the vesicles. Reaction mixtures as well as start reagents (MgATP and AMP solutions) were pre-incubated for 15 minutes at 32° C. for BCRP, and 37° C. for MDR1 assay. Reactions were initiated by addition of the start reagent (MgATP or AMP) to the appropriate wells. Reactions were quenched by the addition of 200 μL of ice-cold washing buffer and immediate filtration via glass fiber filters mounted to a 96-well plate (filter plate). The filters were washed 5×200 μL of ice-cold washing buffer and dried. The amount of accumulated belvarafenib 2HCl retained inside the vesicles was determined by LC-MS/MS detection after washing the vesicles 2 times with 100 μL MeOH:H2O (2:1).
(§10) In the vesicular transport substrate assays, the ATP-dependent transport of the TA as well as the ATP-dependent fold accumulation was calculated for each concentration and time point using the following equation, in both the transporter-containing and control vesicles:
(§11) ATP−dependent transport=nATP−NAMP Fold accumulation=nATP/nAMP
(§12) nATP is the amount of translocated TA in the presence of 4 mM ATP, in pmol/mg. nAMP is the amount of translocated TA in the presence of 4 mM AMP, in pmol/m. […]

MDR1 (ABCB1/P-gp) [9] = target: T2, MDR1 (ABCB1/P-gp); experiment: Vesicular transport substrate assay; type: in vitro ADME
Experimental: as §1, §2, §3, §9, §10, §11, §12

[10] = Stage III of Study MEK4592g, 18 patients
[11] = cobimetinib single agent, Study MEK4592g

Compound: O=C(c1ccc(F)c(F)c1Nc1ccc(I)cc1F)N1CC(O)([C@@H]2CCCCN2)C1 [Cobimetinib]
- patients with SD as best overall response [1, 10]: 22.2%
- patients with unconfirmed tumor responses [1, 10]: 11.1%
- patients with confirmed partial response (PR) [1, 11]: 6.2%
- patients with progressive disease [1, 11]: 41.2%
- B/P (nonclinical), percentage of brain exposure relative to plasma [2]: 30%
- food effect on pharmacokinetics, fed state compared with fasted state [3]: not altered
- binding to plasma proteins [4]: 95%
- tumor regression [5]: up to 100%
- P-gp/BCRP efflux substrate? (P-gp/BCRP): Yes (P-gp)

Compound: C[C@@H](NC(=O)c1ncnc(N)c1Cl)c1ncc(C(=O)Nc2cc(C(F)(F)F)c(Cl)cn2)s1 [DAY101]
- B/P (nonclinical), percentage of brain exposure relative to plasma [2]: 20-34% ^
- P-gp/BCRP efflux substrate? (P-gp/BCRP): Yes (BCRP)

Compound: CC(C)(C)c1nc(-c2cccc(NS(=O)(=O)c3c(F)cccc3F)c2F)c(-c2ccnc(N)n2)s1 [Dabrafenib]
- B/P (nonclinical), percentage of brain exposure relative to plasma [2]: 2-4%
- P-gp/BCRP efflux substrate? (P-gp/BCRP): Yes (P-gp + BCRP)
- P-gp/BCRP efflux substrate? (P-gp/BCRP; listed as dabrafenib): is a P-gp and a BCRP efflux substrate

Compound: COC(=O)N[C@@H](C)CNc1nccc(-c2cn(C(C)C)nc2-c2cc(Cl)cc(NS(C)(=O)=O)c2F)n1 [Encorafenib]
- brain to plasma ratio ([2]; literature values): about 0.004
- B/P (nonclinical), percentage of brain exposure relative to plasma [2]: 0.4%
- P-gp/BCRP efflux substrate? (P-gp/BCRP): Yes (P-gp + BCRP)
- P-gp/BCRP efflux substrate? (P-gp/BCRP; listed as encorafenib): is a P-gp and a BCRP efflux substrate

Compound: Cn1cnc2c(F)c(Nc3ccc(Br)cc3Cl)c(C(=O)NOCCO)cc21 [Selumetinib]
- B/P (nonclinical), percentage of brain exposure relative to plasma [2]: 2%
- P-gp/BCRP efflux substrate? (P-gp/BCRP): Yes (P-gp + BCRP)

Compound: CC(=O)Nc1cccc(-n2c(=O)n(C3CC3)c(=O)c3c(Nc4ccc(I)cc4F)n(C)c(=O)c(C)c32)c1 [Trametinib]
- B/P (nonclinical), percentage of brain exposure relative to plasma [2]: 15%
- P-gp/BCRP efflux substrate? (P-gp/BCRP): Yes (P-gp + BCRP)

Compound: CCCS(=O)(=O)Nc1ccc(F)c(C(=O)c2c[nH]c3ncc(-c4ccc(Cl)cc4)cc23)c1F [Vemurafenib]
- B/P (nonclinical), percentage of brain exposure relative to plasma [2]: 0.4-1% ^
- P-gp/BCRP efflux substrate? (P-gp/BCRP): Yes (P-gp + BCRP)
- P-gp/BCRP efflux substrate? (P-gp/BCRP; listed as vemurafenib): is a P-gp and a BCRP efflux substrate

Compound: Cc1ccc2c(Nc3cccc(Cl)c3F)nccc2c1NC(=O)c1csc2c(N)ncnc12 [belvarafenib 2HCl]
- Maximum inhibition (% of control) (BCRP (ABCG2) [6]; 0.02-13.3 μM): 99.8%
- IC50 (BCRP (ABCG2) [6]; estimated, top of the curve constrained at 100%): 0.011 µM
- inhibition at 0.02 µM (BCRP (ABCG2) [6]; human, probe estrone-3-sulfate (E3S), 0.02 μM, read-out: inhibition at the lowest investigated concentration): 70%
- IC50 (MDR1 (ABCB1/P-gp) [7]; estimated, bottom constrain (0%), inhibition did not reach 50%): 29.6 µM
- inhibition at 13.3 µM (MDR1 (ABCB1/P-gp) [7]; human, probe N-methyl quinidine (NMQ), highest applied concentration (13.3 μM), read-out: Maximum inhibition (% of control)): 32%
- Maximum ATP dependent fold accumulation in transporter expressing vesicles (BCRP (ABCG2) [8]; 1 and 10 μM, 2 and 20 min): 1.51
- Substrate (BCRP (ABCG2) [8]; BCRP VT): probably not a substrate; also recorded: Unlikely
- Maximum ATP dependent fold accumulation in transporter expressing vesicles (MDR1 (ABCB1/P-gp) [9]; 1 and 10 μM, 2 and 20 min): 1.23
- Substrate (MDR1 (ABCB1/P-gp) [9]; MDR1 VT): probably not a substrate; also recorded: Unlikely

Source: US20240173329A1, “BELVARAFENIB FOR USE IN TREATMENT OF BRAIN CANCERS” (Genentech, Inc., priority 2021, published 2024)
